Test results reported in PMC6357153 (Viruses, 2019).
In brackets after ≈: the same amount, converted by molar mass.

Assay: physchem

Row | SMILES | solubility (pH 7.2, aqueous buffer) [µM] | solubility (water) [µM]
1 | CC[C@H](C)[C@H](NC(=O)[C@H](Cc1ccc(O)cc1)NC(=O)[C@H](CO)NC(=O)[C@H](CCC(=O)O)NC(=O)[C@H](CC(N)=O)NC(=O)[C@H](CC(C)C)NC(=O)[C@H](C)NC(=O)[C@H](CCCCN)NC(=O)[C@@H](NC(=O)[C@@H](NC(=O)[C@H](CCC(N)=O)NC(=O)[C@H](CCC(N)=O)NC(=O)[C@H](CC(C)C)NC(=O)[C@H](CO)NC(=O)[C@H](CC(C)C)NC(=O)[C@H](CCSC)NC(=O)[C@H](CCC(=O)O)NC(=O)[C@H](Cc1ccc(O)cc1)NC(=O)[C@@H](NC(=O)[C@H](CC(C)C)NC(=O)[C@H](CC(=O)O)NC(=O)[C@H](CC(C)C)NC(=O)[C@H](CC(C)C)NC(=O)[C@@H](NC(=O)[C@@H](NC(=O)[C@H](CC(N)=O)NC(=O)[C@@H](NC(=O)[C@H](CCC(N)=O)NC(=O)[C@@H](NC(=O)[C@H](CC(C)C)NC(=O)[C@@H](N)CO)[C@@H](C)O)[C@@H](C)CC)[C@@H](C)O)[C@@H](C)O)[C@@H](C)O)C(C)C)C(C)C)C(=O)N[C@@H](CC(=O)O)C(=O)N[C@@H](CC(C)C)C(=O)N[C@@H](CCCCN)C(=O)N[C@@H](CCC(=O)O)C(=O)N[C@@H](CC(C)C)C(=O)O [MERS-HR2P, reference compound] | 105 (≈ 435 µg/mL) | 29 (≈ 120 µg/mL)
2 | CC[C@H](C)[C@H](NC(=O)[C@H](Cc1ccc(O)cc1)NC(=O)[C@H](CO)NC(=O)[C@H](CC(=O)O)NC(=O)[C@H](CC(N)=O)NC(=O)[C@H](CC(C)C)NC(=O)[C@H](CCC(N)=O)NC(=O)[C@H](CCCCN)NC(=O)[C@@H](NC(=O)[C@@H](NC(=O)[C@H](CCC(=O)O)NC(=O)[C@H](CCC(N)=O)NC(=O)[C@H](CC(C)C)NC(=O)[C@H](CCSC)NC(=O)[C@H](C)NC(=O)[C@H](CCSC)NC(=O)[C@H](CCC(=O)O)NC(=O)[C@H](CC(=O)O)NC(=O)[C@H](CO)NC(=O)[C@H](CC(C)C)NC(=O)[C@H](CC(=O)O)NC(=O)[C@H](CC(C)C)NC(=O)[C@H](CC(C)C)NC(=O)[C@@H](NC(=O)[C@@H](NC(=O)[C@H](CC(N)=O)NC(=O)[C@@H](NC(=O)[C@H](CCCCN)NC(=O)[C@H](CO)NC(=O)[C@@H](NC(=O)[C@H](CCC(=O)O)NC(=O)[C@H](C)NC(=O)[C@H](Cc1ccccc1)NC(=O)[C@H](CC(N)=O)NC(=O)[C@@H]1CCCN1C(=O)CN)[C@@H](C)CC)[C@@H](C)CC)[C@@H](C)O)[C@@H](C)O)C(C)C)C(C)C)C(=O)O [HKU4-HR2P1] | 1570 (≈ 6340 µg/mL) | 651 (≈ 2630 µg/mL)
3 | CC[C@H](C)[C@H](NC(=O)[C@H](Cc1ccc(O)cc1)NC(=O)[C@H](CO)NC(=O)[C@H](CC(=O)O)NC(=O)[C@H](CC(N)=O)NC(=O)[C@H](CC(C)C)NC(=O)[C@H](CCC(N)=O)NC(=O)[C@H](CCCCN)NC(=O)[C@@H](NC(=O)[C@@H](NC(=O)[C@H](CCC(=O)O)NC(=O)[C@H](CCC(N)=O)NC(=O)[C@H](CC(C)C)NC(=O)[C@H](CCSC)NC(=O)[C@H](C)NC(=O)[C@H](CCSC)NC(=O)[C@H](CCC(=O)O)NC(=O)[C@H](CC(=O)O)NC(=O)[C@H](CO)NC(=O)[C@H](CC(C)C)NC(=O)[C@H](CC(=O)O)NC(=O)[C@H](CC(C)C)NC(=O)[C@H](CC(C)C)NC(=O)[C@@H](NC(=O)[C@@H](NC(=O)[C@H](CC(N)=O)NC(=O)[C@@H](NC(=O)[C@H](CCCCN)NC(=O)[C@H](CO)NC(=O)[C@@H](NC(=O)[C@@H](N)CCC(=O)O)[C@@H](C)CC)[C@@H](C)CC)[C@@H](C)O)[C@@H](C)O)C(C)C)C(C)C)C(=O)N[C@@H](CC(=O)O)C(=O)N[C@@H](CC(C)C)C(=O)N[C@@H](CCCCN)C(=O)N[C@@H](CCC(=O)O)C(=O)N[C@@H](CC(C)C)C(=O)O [HKU4-HR2P2] | 2920 (≈ 12100 µg/mL) | 150 (≈ 623 µg/mL)
4 | CC[C@H](C)[C@H](NC(=O)[C@H](Cc1ccc(O)cc1)NC(=O)[C@H](CO)NC(=O)[C@H](CC(=O)O)NC(=O)[C@H](CC(N)=O)NC(=O)[C@H](CC(C)C)NC(=O)[C@H](CCC(N)=O)NC(=O)[C@H](CCCCN)NC(=O)[C@@H](NC(=O)[C@@H](NC(=O)[C@H](CCC(=O)O)NC(=O)[C@H](CCC(N)=O)NC(=O)[C@H](CC(C)C)NC(=O)[C@H](CCSC)NC(=O)[C@H](C)NC(=O)[C@H](CCSC)NC(=O)[C@H](CCC(=O)O)NC(=O)[C@H](CC(=O)O)NC(=O)[C@H](CO)NC(=O)[C@H](CC(C)C)NC(=O)[C@H](CC(=O)O)NC(=O)[C@@H](N)CC(C)C)C(C)C)C(C)C)C(=O)N[C@@H](CC(=O)O)C(=O)N[C@@H](CC(C)C)C(=O)N[C@@H](CCCCN)C(=O)N[C@@H](CCC(=O)O)C(=O)N[C@@H](CC(C)C)C(=O)NCC(=O)N[C@@H](CC(N)=O)C(=O)N[C@@H](Cc1ccc(O)cc1)C(=O)N[C@H](C(=O)N[C@@H](Cc1ccc(O)cc1)C(=O)N[C@@H](Cc1ccc(O)cc1)C(=O)N[C@@H](CC(N)=O)C(=O)N[C@@H](CCCCN)C(=O)N[C@@H](Cc1c[nH]c2ccccc12)C(=O)O)[C@@H](C)O [HKU4-HR2P3] | 118 (≈ 513 µg/mL) | 1670 (≈ 7270 µg/mL)
